Experimental data as given in patent publication US20260137819A1 (Radionetics Oncology, Inc., priority 2022, published 2026).
Starred links: 1 amine or outer side, 2 acyl side, 3 side chain; linkers in the order of their positions; H or OH if unused. Non-standard residues stand in square brackets, D forms with d. Residues, ends and D or L forms follow the SMILES beside them. Groups on a side chain read outwards from the residue. *: point of attachment. X1 = COc1cc2c(cc1-c1cccc(N*)c1)-c1c(c(C(=O)N3CCOCC3(C)C)nn1-c1cc(Cl)cc(Cl)c1)CO2; DOTA = O=C(O)CN1CCN(CC(=O)O)CCN(CC(=O)*)CCN(CC(=O)O)CC1; Suc = O=C(CCC(=O)[*:2])[*:1]

Target: T1, human follicle-stimulating hormone receptor (FSHR) (Homo sapiens, UniProt P23945)
T1 construct: host or cells: CHO-K1
T1 sequence (P23945 18-695): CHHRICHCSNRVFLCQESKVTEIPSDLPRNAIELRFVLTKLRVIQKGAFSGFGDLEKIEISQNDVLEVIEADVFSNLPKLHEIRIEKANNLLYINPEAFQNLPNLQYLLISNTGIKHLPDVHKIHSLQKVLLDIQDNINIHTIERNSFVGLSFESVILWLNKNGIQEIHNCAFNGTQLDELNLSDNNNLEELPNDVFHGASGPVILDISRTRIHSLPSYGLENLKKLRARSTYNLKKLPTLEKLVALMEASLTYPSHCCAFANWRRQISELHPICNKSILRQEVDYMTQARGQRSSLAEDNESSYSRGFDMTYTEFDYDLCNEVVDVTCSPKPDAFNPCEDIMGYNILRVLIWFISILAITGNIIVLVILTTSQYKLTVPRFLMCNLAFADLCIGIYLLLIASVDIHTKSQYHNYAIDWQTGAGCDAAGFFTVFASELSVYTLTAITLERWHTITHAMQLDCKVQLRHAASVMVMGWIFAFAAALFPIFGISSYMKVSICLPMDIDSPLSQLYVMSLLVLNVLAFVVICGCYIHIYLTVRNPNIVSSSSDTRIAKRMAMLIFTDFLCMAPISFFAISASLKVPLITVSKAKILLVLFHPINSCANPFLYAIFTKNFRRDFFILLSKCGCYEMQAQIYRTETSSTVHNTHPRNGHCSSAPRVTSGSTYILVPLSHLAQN
Test: Measurement of agonist cAMP production by activation of human FSHR
Assay type: cell-based
Conditions: CHO-K1 human FSHR cells, 30 minutes at 37° C., HTRF cAMP kit; read-out: hFSHR Agonist cAMP EC50
Protocol: Measurement of agonist cAMP production by activation of human FSHR
Two days prior to the assay, 5,000 CHO—K1 human FSHR cells (Eurofins #95-0119C2) stably expressing the functional human follicle-stimulating hormone receptor were plated in a 96-well tissue culture-treated plate in growth media supplemented with the appropriate selection agent. […] The cells were incubated for 30 minutes at 37° C. (the final concentrations of the compound ranged from 0-10,000 nM). After the 30-minute incubation at 37° C., lysis buffer (HRTF CAMP kit, Cisbio #62AM5PEB)w as added directly to the cells and incubated for 30-minutes at room temperature. The diluted lysate was transferred and CAMP detection and visualization antibodies (HRTF CAMP kit, Cisbio #62AM5PEB) were added and incubated for 1-24 hours at room temperature. The time-resolved fluorescent signal was read with a Tecan M1000Pro (Tecan) multiplate reader. The intracellular cAMP concentrations were calculated by regression to a standard curve and were plotted vs. the concentration of the agonists. The concentration of test compound or FSH required to generate a half maximal response EC50 were calculated using standard curve-fitting methods. All data manipulations were performed using GraphPad Prism v9.3.1 (GraphPad, San Diego, CA).

Compared with COc1cc2c(cc1-c1cccc(NC(=O)CCOCCOCCNC(=O)C3OC(CNC(=O)CN4CCN(CC(=O)O)CCN(CC(=O)O)CCN(CC(=O)O)CC4)C(O)C(O)C3O)c1)-c1c(c(C(=O)N3CCOCC3(C)C)nn1-c1cc(Cl)cc(Cl)c1)CO2 [Compound 21, 2,2′,2″-(10-(2-((((2S,3R,4R,5R,6S)-6-((2-(2-(3-((3-(1-(3,5-dichlorophenyl)-3-(3,3-dimethylmorpholine-4-carbonyl)-7-methoxy-1,4-dihydrochromeno|4,3-clpyrazol-8-yl)phenyl)amino)-3-oxopropoxy)ethoxy)ethyl)carbamoyl)-3,4,5-trihydroxytetrahydro-2H-pyran-2-yl)methyl)amino)-2-oxoethyl)-1,4,7,10-tetraazacyclododecane-1,4,7-triyl)triacetic acid], COc1cc2c(cc1-c1cccc(NC(=O)CCOCCOCCOCCNC(=O)CN3CCN(CC(=O)O)CCN(CC(=O)O)CCN(CC(=O)O)CC3)c1)-c1c(c(C(=O)N3CCOCC3(C)C)nn1-c1cc(Cl)cc(Cl)c1)CO2 [Compound 18, 2,2′,2″-(10-(15-((3-(1-(3,5-dichlorophenyl)-3-(3,3-dimethylmorpholine-4-carbonyl)-7-methoxy-1,4-dihydrochromeno|4,3-c|pyrazol-8-yl)phenyl)amino)-2,15-dioxo-6,9,12-trioxa-3-azapentadecyl)-1,4,7,10-tetraazacyclododecane-1,4,7-triyl)triacetic acid] is higher in EC50: < 10 nM for the first, 10 to 100 nM for the second.

COc1cc2c(cc1-c1cncc(NC(=O)CNC(=O)[C@H](CCC(=O)NC[C@H](O)[C@@H](O)[C@H](O)[C@H](O)CO)NC(=O)CN3CCN(CC(=O)O)CCN(CC(=O)O)CCN(CC(=O)O)CC3)c1)-c1c(c(C(=O)N3CCOCC3(C)C)nn1-c1cc(Cl)cc(Cl)c1)CO2 [Compound 56, 2,2′,2″-(10-(2-(((S)-1-((2-((5-(1-(3,5-dichlorophenyl)-3-(3,3-dimethylmorpholine-4-carbonyl)-7-methoxy-1,4-dihydrochromeno[4,3-c]pyrazol-8-yl)pyridin-3-yl)amino)-2-oxoethyl)amino)-1,5-dioxo-5-(((2S,3R,4R,5R)-2,3,4,5,6-pentahydroxyhexyl)amino)pentan-2-yl)amino)-2-oxoethyl)-1,4,7,10-tetraazacyclododecane-1,4,7-triyl)triacetic acid--2,2,2-trifluoroacetic acid (1/1)] and COc1cc2c(cc1-c1cccc(NC(=O)CC[C@@H](NC(=O)CN3CCN(CC(=O)O)CCN(CC(=O)O)CCN(CC(=O)O)CC3)C(=O)O)c1)-c1c(c(C(=O)N3CCOCC3(C)C)nn1-c1cc(Cl)cc(Cl)c1)CO2 [Compound 31] fall in the same range of EC50: 10 to 100 nM for the first, 10 to 100 nM for the second.

First: COc1cc2c(cc1-c1cncc(NC(=O)CCOCCOCCOCCOCCNC(=O)[C@H](CS(=O)(=O)O)NC(=O)CN3CCN(CC(=O)O)CCN(CC(=O)O)CCN(CC(=O)O)CC3)c1)-c1c(c(C(=O)N3CCOCC3(C)C)nn1-c1cc(Cl)cc(Cl)c1)CO2 [Compound 80]
Second: COc1cc2c(cc1-c1cncc(NCCOCCOCCOCCOCCNC(=O)[C@H](CS(=O)(=O)O)NC(=O)CN3CCN(CC(=O)O)CCN(CC(=O)O)CCN(CC(=O)O)CC3)c1)-c1c(c(C(=O)N3CCOCC3(C)C)nn1-c1cc(Cl)cc(Cl)c1)CO2 [Compound 67, (R)-2,2′,2″-(10-(20-((5-(1-(3,5-dichlorophenyl)-3-(3,3-dimethylmorpholine-4carbonyl)-7-methoxy-1,4-dihydrochromeno|4,3-c|pyrazol-8-yl)pyridin-3-yl)amino)-2,5-dioxo-4-(sulfomethyl)-9,12,15,18-tetraoxa-3,6-diazaicosyl)-1,4,7,10-tetraazacyclododecane-1,4,7-triyl)triacetic acid--2,2,2-trifluoroacetic acid (1/1)]
The EC50 of the first is higher: 10 to 100 nM for the first, < 10 nM for the second.

COc1cc2c(cc1-c1cccc(NC(=O)NCCNC(=O)[C@H](N)CCCCNC(=O)CN3CCN(CC(=O)O)CCN(CC(=O)O)CCN(CC(=O)O)CC3)c1)-c1c(c(C(=O)N3CCOCC3(C)C)nn1-c1cc(Cl)cc(Cl)c1)CO2 [Compound 23A, indium (III) (R)-2,2′,2″-(10-(2-((5-amino-6-((2-(3-(3-(1-(3,5-dichlorophenyl)-3-(3,3-dimethylmorpholine-4-carbonyl)-7-methoxy-1,4-dihydrochromeno[4,3-c]pyrazol-8-yl)phenyl)ureido)ethyl)amino)-6-oxohexyl)amino)-2-oxoethyl)-1,4,7,10-tetraazacyclododecane-1,4,7-triyl)triacetate] and COc1cc2c(cc1-c1cccc(NC(=O)CONC(=O)CN3CCN(CC(=O)O)CCN(CC(=O)O)CCN(CC(=O)O)CC3)c1)-c1c(c(C(=O)N3CCOCC3(C)C)nn1-c1cc(Cl)cc(Cl)c1)CO2 [Compound 43] fall in the same range of EC50: 10 to 100 nM for the first, 10 to 100 nM for the second.

COc1cc2c(cc1-c1cccc(NCCOCCOCCOCCOCCNC(=O)[C@H](CS(=O)(=O)O)NC(=O)CN3CCN(CC(=O)O)CCN(CC(=O)O)CCN(CC(=O)O)CC3)c1)-c1c(c(C(=O)N3CCOCC3(C)C)nn1-c1cc(Cl)cc(Cl)c1)CO2 [Compound 71] and COc1cc2c(cc1-c1cccc(NC(=O)NCCNC(=O)[C@H](N)CCCCNC(=O)CN3CCN(CC(=O)O)CCN(CC(=O)O)CCN(CC(=O)O)CC3)c1)-c1c(c(C(=O)N3CCOCC3(C)C)nn1-c1cc(Cl)cc(Cl)c1)CO2 [Compound 23] cannot be ordered by EC50: < 10 nM for the first, < 10 nM for the second.

COc1cc2c(cc1-c1cccc(NC(=O)CCC(=O)NCCCC[C@@H](NC(=O)[C@@H](CCC(=O)O)NC(=O)[C@@H](CCCNC(=N)N)NC(=O)[C@@H](C)NC(=O)CN3CCN(CC(=O)O)CCN(CC(=O)O)CCN(CC(=O)O)CC3)C(=O)N[C@H](CCCNC(=N)N)C(=O)N[C@H](CCC(=O)O)C(=O)N[C@H](C)C(N)=O)c1)-c1c(c(C(=O)N3CCOCC3(C)C)nn1-c1cc(Cl)cc(Cl)c1)CO2 [Compound 83, 2,2′,2″-(10-((4R,7R,10R,13R,16R,19R,22R)-23-amino-10,19-bis(2carboxyethyl)-13-(4-(4-((3-(1-(3,5-dichlorophenyl)-3-(3,3-dimethylmorpholine-4-carbonyl)-7-methoxy-1,4-dihydrochromeno|4,3-c|pyrazol-8-yl)phenyl)amino)-4-oxobutanamido)butyl)-7,16-bis(3-guanidinopropyl)-4,22-dimethyl-2,5,8,11,14,17,20,23-octaoxo-3,6,9,12,15,18,21-heptaazatricosyl)-1,4,7,10-tetraazacyclododecane-1,4,7-triyl)triacetic acid] ({DOTA}-[dA][dR][dE][dK]([Suc-X1])[dR][dE][dA]-NH2) and COc1cc2c(cc1-c1cccc(NC(=O)CCOCCOCCOCCN(CCOCCOCCOCCNC(=O)CN3CCN(CC(=O)O)CCN(CC(=O)O)CCN(CC(=O)O)CC3)CCOCCOCCOCCNC(=O)CN3CCN(CC(=O)O)CCN(CC(=O)O)CCN(CC(=O)O)CC3)c1)-c1c(c(C(=O)N3CCOCC3(C)C)nn1-c1cc(Cl)cc(Cl)c1)CO2 [Compound 13] fall in the same range of EC50: 10 to 100 nM for the first, 10 to 100 nM for the second.

Same assay, conditions: hFSHR Agonist cAMP EC50, CHO-K1 human FSHR cells, 30 minutes at 37° C., HTRF cAMP kit

In the case of COc1cc2c(cc1-c1cccc(NC(=O)CCC(=O)NC3CCN(C(=O)CN4CCN(CC(=O)O)CCN(CC(=O)O)CCN(CC(=O)O)CC4)CC3)c1)-c1c(c(C(=O)N3CCOCC3(C)C)nn1-c1cc(Cl)cc(Cl)c1)CO2 [Compound 11], the EC50 is reported as < 10 nM.
